Data published in US20220226321A1, “INHIBITOR OF MNK FOR THE TREATMENT OF NEUROPATHIC PAIN” (Board of Regents, The University of Texas System, priority 2019, published 2022).
Entries after “also recorded” stand apart in the source; their conditions may differ.

What was measured:
DRG neurons [1] = assay: whole-cell patch recording of acutely dissociated DRG neurons; assay type: cell-based, mouse
Method: Acute dissociation of mouse DRG neurons. Thirty mice were deeply anesthetized with isoflurane and the bilateral C4-5, T3-5, and L4-5 ganglia were surgically exposed and removed. The ganglia were placed in a flask containing trypsin (6.25 μg/mL, Hyclone) and type IA collagenase (0.25 mg/mL, Sigma-Aldrich) in DMEM and shaken for 50 min in a heated (37° C.) bath. After the cells were washed and mechanically dispersed with a fire polished Pasteur pipette, they were plated on poly-L-lysine-coated glass sheets and held in culture dishes with DMEM (10% FBS) until use within 6 hours after plating.
Whole-cell patch recording of spontaneous and evoked action potential in acutely dissociated mice DRG neurons. A previously described protocol was used (Li et al., 2017) for current-clamp recording. The internal solution contained 135 mM K-gluconate, 5 mM KCl, 5 mM Mg-ATP, 0.5 mM Na2GTP, 5 mM HEPES, 2 mM MgCl2, 5 mM EGTA, and 0.5 mM CaCl2 adjusted to pH 7.4 with KOH and the bath ACSF solution. DRG neurons were held at 0 pA, and the action potential current threshold was evoked using a series of 300-ms depolarizing current injections in 10-pA steps from −50 pA. The current that induced the first action potential that was defined as 1× rheobase. Only neurons with a resting membrane potential of at least −40 mV, stable baseline recordings, and evoked spikes that overshot 0 mV were used for further experiments and analysis. The DRG neurons were then held at 0 pA to record spontaneous action potential for 5 min. The different times rheobase injections for 500 ms was applied to induce action potential spike-burst responses. Series resistance (Rs) was compensated to above 70% for the recorded DRG neurons. All recordings were made at room temperature.

DRG = assay: Western blot (immunoblot) of DRG tissue after paclitaxel or eFT508 in vivo; parameters: species or system mouse; conditions: Veh=100
DRG neurons [2] = assay: whole-cell patch clamp of cultured DRG neurons treated with IL-6 and eFT508; assay type: cell-based, mouse
Method: Phosphorylation of the 5′ cap-binding protein eIF4E by MAPK interacting kinases MNK1/2 is important for nociceptor sensitization and the development of chronic pain. IL-6 induced DRG nociceptor excitability is attenuated in mice lacking eIF4E phosphorylation, in MNK1/2^−/− mice and by the nonselective MNK1/2 inhibitor cercosporamide. […] Dorsal root ganglion (DRG) neurons were cultured from male and female ICR mice, 4-7 weeks old. […] Whole-cell patch clamp recordings were done on small diameter neurons (20-30 pF) to measure membrane excitability in response to ramp depolarization. […] These findings are consistent with a model wherein MNK-eIF4E signaling controls the translation of signaling factors that regulate T-type VGCCs in response to IL-6 treatment.

paclitaxel-treated mice [3] = assay: thermal latency (Hot/Cold plate) in paclitaxel-induced CIPN; assay type: in vivo, mouse; conditions: for thermal hyperalgesia: acute treatment
Method: Thermal and mechanical testing. Mice were housed on 12-hr light-/dark cycles with lights on at 7:00 AM. Mice had food and water available ad libitum. All behavioral experiments were performed between the hours of 9:00 AM and 6:00 PM. Mice were randomized to groups from multiple cages to avoid using mice from experimental groups that were cohabitating. Sample size was estimated as […] using a power calculation with 80% power, expectations of 50% effect size, with alpha set to 0.05. The number of animals used in each experiment was based on available animals of the appropriate sex and age but was at least n=5 for experiments. Standard deviation for power calculations was based on previously published data using similar models. Mice were habituated for 1 hr to clear acrylic behavioral chambers before beginning the experiment. Mechanical paw withdrawal thresholds were measured using the up-down method (Chaplan et al., 1994) with calibrated Von Frey filaments (Stoelting Company, Wood Dale, Ill.). Thermal latency was measured using a Hot/Cold plate setting the temperature at 49, 50 and 52° C. […] The experimenter was blinded to the genotype of the mice and drug condition in all experiments.

paclitaxel-treated mice [4] = assay: mechanical paw withdrawal threshold (von Frey) in paclitaxel-induced CIPN; assay type: in vivo, mouse; conditions: for mechanical allodynia / hypersensitivity, acute treatment: 10 mg/kg i.p. after full development of CIPN, 1st and 2nd injection, 1 and 3 hrs
[5] = test system: models which harbor activating MyD88 mutations; conditions: in vivo, multiple models; cited from earlier work
[6] = DRG, day 10 after induction of CIPN
[7] = DRGs in vivo after eFT508 treatment

**Q.** What does the source list for `CC(=O)O[C@H]1C(=O)[C@@]2(C)[C@H]([C@H](OC(=O)c3ccccc3)[C@]3(O)C[C@H](OC(=O)[C@H](O)[C@@H](NC(=O)c4ccccc4)c4ccccc4)C(C)=C1C3(C)C)[C@]1(OC(C)=O)CO[C@@H]1C[C@@H]2O` [paclitaxel]?
**A.** spontaneous activity and nociceptor excitability (DRG neurons [1]; cervical, thoracic and lumbar DRGs, day 10, paclitaxel 4 mg/kg every other day i.p.): caused spontaneous activity and increased nociceptor excitability; Esyt1 protein, immunoblot (DRG; DRG after CIPN induction): 230±18.30; mTOR, immunoblot (DRG; DRG after paclitaxel treatment): 195±25.27; p-4EBP1, immunoblot (DRG; DRG after paclitaxel treatment): 152±11.27; p-eIF4E, immunoblot (DRG; DRG after paclitaxel treatment): 158±10.57; p-mTOR, immunoblot (DRG; DRG after paclitaxel treatment): 131±20.27; RagA protein level, immunoblot (DRG; DRG of eIF4E^S209A mice, paclitaxel vs vehicle): 75±8.46; S6, immunoblot (DRG; [6]): 133±24.54; p-Akt, immunoblot (DRG; [6]): 96.86±6.63; p-ERK1/2, immunoblot (DRG; [6]): 107±14.94; p-S6, immunoblot (DRG; [6]): 134±24.47; RagA protein level, immunoblot (DRG; DRGs after CIPN): 181±15.35

**Q.** Which “spontaneous activity in DRG neurons from paclitaxel treated mice” value (DRG neurons [1]) does the source give for `Cc1cc(Nc2cc(N)ncn2)c(=O)n2c1C(=O)NC21CCCCC1` [eFT508, Tomivosertib] here?
**A.** strongly suppressed; also recorded: decreases spontaneous activity

**Q.** And the “toxicity to DRG neurons in vitro” value (DRG neurons [1])?
**A.** not toxic

**Q.** What about the “treatment time needed to reduce spontaneous activity in most neurons” value (DRG neurons [1]; DRG neurons from paclitaxel treated mice) of the same compound?
**A.** Approximately 20 min

**Q.** What about the “latency to the first action potential in the ramp protocol” value (DRG neurons [2]; IL-6, eFT508 pretreatment) of the same compound?
**A.** rescued

**Q.** And the “action potential firing in response to ramp depolarization” value (DRG neurons [2]; one hr IL-6, eFT508 pretreatment followed by IL-6)?
**A.** blocked

**Q.** What about the thermal hypersensitivity (paclitaxel-treated mice [3]; 10 mg/kg after full development of CIPN) of the same compound?
**A.** reversal

**Q.** And the thermal hyperalgesia (paclitaxel-treated mice [3]; at 3 hrs)?
**A.** did not significantly attenuate

**Q.** What about the thermal hyperalgesia (paclitaxel-treated mice [3]; at 24 hrs) of the same compound?
**A.** a significant effect was observed

**Q.** And the “mechanical hypersensitivity (established CIPN), chronic treatment” value (paclitaxel-treated mice [4]; 1 mg/kg, WT mice)?
**A.** robust relief of mechanical hypersensitivity; also recorded: reverses established CIPN

**Q.** And the “tolerance to repeated dosing” value (paclitaxel-treated mice [4]; 1 mg/kg, WT mice)?
**A.** No signs of tolerance; also recorded: without inducing tolerance

**Q.** And the “mechanical hypersensitivity, chronic treatment” value (paclitaxel-treated mice [4]; 1 mg/kg, eIF4E^S209A mice)?
**A.** completely absent; also recorded: completely without effect

**Q.** And the “mechanical allodynia / hypersensitivity, acute treatment” value (paclitaxel-treated mice [4])?
**A.** reversal; also recorded: transiently relieves mechanical allodynia

**Q.** And the “mechanical allodynia / hypersensitivity, acute treatment” value (paclitaxel-treated mice [4]; listed as eFT08)?
**A.** relieves mechanical allodynia

**Q.** What about the anti-tumor activity [5] of the same compound?
**A.** significant anti-tumor activity

**Q.** What about the “RagA, immunoblot” value (DRG; [7]) of the same compound?
**A.** 67±6.02

**Q.** And the “p4EBP1, immunoblot” value (DRG; [7])?
**A.** 53.12±7.03

**Q.** And the “p-eIF4E, immunoblot” value (DRG; [7])?
**A.** 10±2.43
